The source of these data is patent US5064954A, “Process for producing halomethylcarbapenems” (Shionogi & Co., Ltd., priority 1990, dated 1991).

Each structure is given as a SMILES string. In brackets after ≈: the same amount, converted by molar mass. Counter-ions that a name gives are not always drawn.

Holding throughout (assay type): cell-based
The test system of one assay is S. aureus Smith. The assay is described as follows: MIC against S. aureus Smith. To be noted: Staphylococcus aureus. The text has this:
|MIC: μg/ml (inoculum size = 10^5 /ml) |S = S. aureus Smith

The subject of another assay is E. coli EC-14. The assay is described as follows: MIC against E. coli EC-14. To be noted: Escherichia coli, EC14. The text has this: |MIC: μg/ml (inoculum size = 10^5 /ml) |E = E. coli EC-14
For the next assay, the system named is Ps. aeruginosa SR-24. The assay is described as follows: MIC against Ps. aeruginosa SR-24. The note with it: Pseudomonas aeruginosa, SR24. The text has this:
|MIC: μg/ml (inoculum size = 10^5 /ml) |P = Ps. aeruginosa SR-24

Setting [1] is: Table I, S = S. aureus Smith, inoculum size = 10^5 /ml.
Setting [2] is: Table I, E = E. coli EC-14, inoculum size = 10^5 /ml.
Setting [3] is: Table I, P = Ps. aeruginosa SR-24, inoculum size = 10^5 /ml.
[4] abbreviates: Table II, S (key, unit and inoculum given only in Table I).
Setting [5] is: Table II, E (key, unit and inoculum given only in Table I).
The mark [6] stands for this setting: Table II, P (key, unit and inoculum given only in Table I).

For `Cc1cc[n+](CC2=C(C(=O)[O-])N3C(=O)[C@H](C(C)O)[C@H]3[C@H]2C)cc1` (stereo partly drawn) [Table I No. 6], the results for the MIC against S. aureus Smith (setting [1]), in the assay with E. coli EC-14 (setting [2]) and with Ps. aeruginosa SR-24 (setting [3]) were 0.025 µg/mL (≈ 0.079 µM), 0.39 µg/mL (≈ 1.23 µM) and 3.13 µg/mL (≈ 9.89 µM), respectively.

In the case of `CC(O)[C@H]1C(=O)N2C(C(=O)O)=C(CN3CCCCC3)[C@H](C)[C@H]12` (stereo partly drawn) [Table III No. 4, 1β-methyl-2-(piperidin-1-yl)methyl-6α-(1-hydroxyethyl)-1-carba-2-penem-4-carboxylic acid sodium salt], the MIC against S. aureus Smith (Table III, S (key, unit and inoculum given only in Table I)) was found to be 0.0125 µg/mL; against E. coli EC-14 (Table III, E (key, unit and inoculum given only in Table I)), 1.56 µg/mL; with Ps. aeruginosa SR-24 (Table III, P (key, unit and inoculum given only in Table I)) it was 50 µg/mL.

`CC(O)[C@H]1C(=O)N2C(C(=O)[O-])=C(C[N+]3(C)CCCC3)[C@H](C)[C@H]12` (stereo partly drawn) [Table II No. 1]: the MIC turned out to be 0.025 µg/mL (≈ 0.0811 µM) in the assay with S. aureus Smith (setting [4]), 0.1 µg/mL (≈ 0.324 µM) in the assay with E. coli EC-14 (setting [5]) and 3.13 µg/mL (≈ 10.1 µM) with Ps. aeruginosa SR-24 (setting [6]).

As for `CC(O)[C@H]1C(=O)N2C(C(=O)[O-])=C(C[N+]3(C)CCCCC3)[C@H](C)[C@H]12` (stereo partly drawn) [Table II No. 4, 1β-methyl-2-(1-methylpiperidinio-1-yl)methyl-6α-(1-hydroxyethyl)-1-carba-2-penem-4-carboxylate], the values for the MIC against S. aureus Smith (setting [4]), in the assay on E. coli EC-14 (setting [5]) and against Ps. aeruginosa SR-24 (setting [6]) were 0.025 µg/mL (≈ 0.0775 µM), 0.1 µg/mL (≈ 0.31 µM) and 3.13 µg/mL (≈ 9.71 µM), respectively.

Take `CSc1ccc[n+](CC2=C(C(=O)[O-])N3C(=O)[C@H](C(C)O)[C@H]3[C@H]2C)c1` (stereo partly drawn) [Table I No. 26]: the results for the MIC with S. aureus Smith (setting [1]), with E. coli EC-14 (setting [2]) and in the assay with Ps. aeruginosa SR-24 (setting [3]) were 0.0125 µg/mL (≈ 0.0359 µM), 0.39 µg/mL (≈ 1.12 µM) and 3.13 µg/mL (≈ 8.98 µM), respectively.

Consider `CC(O)[C@H]1C(=O)N2C(C(=O)[O-])=C(C[n+]3ccc(-c4cnco4)cc3)[C@H](C)[C@H]12` (stereo partly drawn) [Table I No. 18], for which the MIC in the assay on S. aureus Smith (setting [1]) is 0.025 µg/mL (≈ 0.0677 µM); in the assay with E. coli EC-14 (setting [2]), 0.39 µg/mL (≈ 1.06 µM); in the assay on Ps. aeruginosa SR-24 (setting [3]), 6.25 µg/mL (≈ 16.9 µM).

Turning to `CC(O)[C@H]1C(=O)N2C(C(=O)[O-])=C(C[N+]34CCC(CC3)CC4)[C@H](C)[C@H]12` (stereo partly drawn) [Table II No. 5, 1β-methyl-2-(quinuclidinio-1-yl)-methyl-6α-(1-hydroxyethyl)-1-carba-2-penem-4-carboxylate], the minimal inhibitory concentration (MIC) against S. aureus Smith (setting [4]) was found to be 0.025 µg/mL (≈ 0.0748 µM); in the assay with E. coli EC-14 (setting [5]), 0.2 µg/mL (≈ 0.598 µM); in the assay with Ps. aeruginosa SR-24 (setting [6]), 6.25 µg/mL (≈ 18.7 µM).

As for `CSc1cc[n+](CC2=C(C(=O)[O-])N3C(=O)[C@H](C(C)O)[C@H]3[C@H]2C)cc1` (stereo partly drawn) [Table I No. 27], the values for the minimal inhibitory concentration (MIC) in the assay on S. aureus Smith (setting [1]), against E. coli EC-14 (setting [2]) and with Ps. aeruginosa SR-24 (setting [3]) were 0.025 µg/mL (≈ 0.0718 µM), 0.2 µg/mL (≈ 0.574 µM) and 3.13 µg/mL (≈ 8.98 µM), respectively.

`CCc1cc[n+](CC2=C(C(=O)[O-])N3C(=O)[C@H](C(C)O)[C@H]3[C@H]2C)cc1` (stereo partly drawn) [Table I No. 7]: the figures for the MIC against S. aureus Smith (setting [1]), with E. coli EC-14 (setting [2]) and in the assay on Ps. aeruginosa SR-24 (setting [3]) were 0.025 µg/mL (≈ 0.0757 µM), 0.39 µg/mL (≈ 1.18 µM) and 3.13 µg/mL (≈ 9.47 µM), respectively.

On to `CC(O)[C@H]1C(=O)N2C(C(=O)[O-])=C(C[n+]3cccc(-c4cnco4)c3)[C@H](C)[C@H]12` (stereo partly drawn) [Table I No. 16], for which the MIC was found to be 0.025 µg/mL (≈ 0.0677 µM) with S. aureus Smith (setting [1]), 0.2 µg/mL (≈ 0.541 µM) with E. coli EC-14 (setting [2]) and 1.56 µg/mL (≈ 4.22 µM) against Ps. aeruginosa SR-24 (setting [3]).

`CC(O)[C@H]1C(=O)N2C(C(=O)[O-])=C(C[N+]3(CC(N)=O)CCCC3)[C@H](C)[C@H]12` (stereo partly drawn) [Table II No. 2]: the minimal inhibitory concentration (MIC) in the assay with S. aureus Smith (setting [4]) was 0.1 µg/mL (≈ 0.285 µM); against E. coli EC-14 (setting [5]), 0.2 µg/mL (≈ 0.569 µM); against Ps. aeruginosa SR-24 (setting [6]) it was 12.5 µg/mL (≈ 35.6 µM).

Turning to `CC(O)[C@H]1C(=O)N2C(C(=O)[O-])=C(C[n+]3ccsc3)[C@H](C)[C@H]12` (stereo partly drawn) [Table I No. 1], the MIC stood at 0.025 µg/mL (≈ 0.0811 µM) against S. aureus Smith (setting [1]), 0.1 µg/mL (≈ 0.324 µM) in the assay on E. coli EC-14 (setting [2]) and 3.13 µg/mL (≈ 10.2 µM) with Ps. aeruginosa SR-24 (setting [3]).

Take `CC(O)[C@H]1C(=O)N2C(C(=O)[O-])=C(C[n+]3cccc(N)c3)[C@H](C)[C@H]12` (stereo partly drawn) [Table I No. 19]: the MIC was 0.0125 µg/mL (≈ 0.0394 µM) against S. aureus Smith (setting [1]), 0.2 µg/mL (≈ 0.63 µM) in the assay on E. coli EC-14 (setting [2]) and 1.56 µg/mL (≈ 4.92 µM) in the assay with Ps. aeruginosa SR-24 (setting [3]).

Take `CC(O)[C@H]1C(=O)N2C(C(=O)[O-])=C(C[N+]3(CC(=O)O)CCCC3)[C@H](C)[C@H]12` (stereo partly drawn) [Table II No. 3]: the MIC against S. aureus Smith (setting [4]) was found to be 0.39 µg/mL (≈ 1.11 µM); with E. coli EC-14 (setting [5]) it was 0.39 µg/mL (≈ 1.11 µM); against Ps. aeruginosa SR-24 (setting [6]) it was 50 µg/mL (≈ 142 µM).

With `CC(O)[C@H]1C(=O)N2C(C(=O)[O-])=C(C[n+]3ccccc3)[C@H](C)[C@H]12` (stereo partly drawn) [Table I No. 3, 1β-methyl-2-pyridiniomethyl-6α-(1-hydroxyethyl)-1-carba-2-penem-4-carboxylate], the minimum inhibitory concentration (MIC) in the assay with S. aureus Smith (setting [1]) amounted to 0.0125 µg/mL (≈ 0.0413 µM); in the assay on E. coli EC-14 (setting [2]) it was 0.1 µg/mL (≈ 0.331 µM); against Ps. aeruginosa SR-24 (setting [3]) it was 1.56 µg/mL (≈ 5.16 µM).

Regarding `CC(O)[C@H]1C(=O)N2C(C(=O)[O-])=C(C[N+]34CCN(CC3)CC4)[C@H](C)[C@H]12` (stereo partly drawn) [Table II No. 6], the MIC was determined as 0.1 µg/mL (≈ 0.298 µM) with S. aureus Smith (setting [4]), 0.39 µg/mL (≈ 1.16 µM) in the assay with E. coli EC-14 (setting [5]) and 6.25 µg/mL (≈ 18.6 µM) against Ps. aeruginosa SR-24 (setting [6]).

In the case of `CC(O)[C@H]1C(=O)N2C(C(=O)[O-])=C(C[n+]3cccc(O)c3)[C@H](C)[C@H]12` (stereo partly drawn) [Table I No. 23], the MIC in the assay on S. aureus Smith (setting [1]) is 0.05 µg/mL (≈ 0.157 µM); in the assay on E. coli EC-14 (setting [2]), 0.2 µg/mL (≈ 0.628 µM); against Ps. aeruginosa SR-24 (setting [3]), 12.5 µg/mL (≈ 39.3 µM).

In the case of `CC(O)[C@H]1C(=O)N2C(C(=O)[O-])=C(C[n+]3cccc4c3CCC4)[C@H](C)[C@H]12` (stereo partly drawn) [Table I No. 8], the minimal inhibitory concentration (MIC) with S. aureus Smith (setting [1]) was 0.025 µg/mL (≈ 0.073 µM); in the assay with E. coli EC-14 (setting [2]) it was 0.2 µg/mL (≈ 0.584 µM); in the assay on Ps. aeruginosa SR-24 (setting [3]), 6.25 µg/mL (≈ 18.3 µM).

In the case of `CC(O)[C@H]1C(=O)N2C(C(=O)[O-])=C(C[n+]3ccc(N(C)C)cc3)[C@H](C)[C@H]12` (stereo partly drawn) [Table I No. 22], the MIC turned out to be 0.0125 µg/mL (≈ 0.0362 µM) with S. aureus Smith (setting [1]), 0.1 µg/mL (≈ 0.29 µM) against E. coli EC-14 (setting [2]) and 3.13 µg/mL (≈ 9.06 µM) against Ps. aeruginosa SR-24 (setting [3]).
